From paper PMC11085872, “Structure-Based Design of Novel Thiazolone[3,2-a]pyrimidine Derivatives as Potent RNase H Inhibitors for HIV Therapy” (Molecules, 2024)

Key:
[1] = target: T1, HIV-1 RT-associated RNase H (Human immunodeficiency virus type 1 group M subtype B, UniProt P03366); assay: RNase H polymerase-independent cleavage assay; type: biochemical; details: for IC50: IC50, compound concentration required to reduce HIV-1 RT-associated RNase H activity by 50%; for remaining activity at 100 µM: read-out: Percentage of the control activity measured at the indicated compound concentration
T1 construct: His-tagged p66/p51 HIV-1 RT group M subtype B; His tag; made in house; host or cells: Escherichia coli strain M15 (plasmid p6HRT-prot)
Experimental: The Ar^1 and Ar^2 aromatic segments of the molecule also approach the protein surface, through hydrophobic interactions. These findings provide important information for further structural optimization. All these newly designed thiazolone[3,2-a]pyrimidine derivatives were evaluated for their inhibitory activity against HIV RT-associated RNase H, using the diketo acid RDS1643 as positive control. […] The decrease in activity observed in compounds containing a sulfonic acid group might be attributed to the excessively strong acidity of the sulfonic acid group, which could protonate the diazo group within the molecule. […] When Ar^2 was changed from a phenyl group to a naphthyl group, the activity of compound 10f gained a great improvement over that of compound 10k. […] And when a negatively charged polar group was present at the 2-position of Ar^2, the inhibitory activity is enhanced. […]
3. Biology Experimental section
3.1 Expression and purification of recombinant HIV-1 RTs.
His-tagged p66/p51 HIV-1 RT group M subtype B coded in a p6HRT-prot plasmid was expressed in the Escherichia coli strain M15.1 Heterodimeric RTs were expressed essentially and purified as described.2 E. coli cells harboring the expression vector were cultured until reaching an optical density at 600 nm of 0.7. Induction of protein expression was achieved by treating the cells with 1.7 mM isopropyl β-D-1-thiogalactopyranoside (IPTG) for a duration of 4 hours. The subsequent purification of the protein was performed using a BioLogic LP system (BioRad) employing a combination of immobilized metal affinity chromatography and ion exchange […]
To initiate the purification process, the cell pellets were resuspended in lysis buffer at a ratio of 1:2 (cell pellet volume: lysis buffer volume). The lysis buffer used consisted of 50 mM sodium phosphate buffer with a pH of 7.8, supplemented with 0.5 mg/ml lysozyme. The resuspended cells were incubated on ice for 20 minutes. Following this, NaCl was added to achieve a final concentration of 0.3 M. The cells were then subjected to sonication, with four cycles of 60 seconds each, alternating between one second on and one second off. Subsequently, the cell lysate was centrifuged at 30, 000×g for 1 […]
The supernatant obtained from the centrifugation step was loaded onto a Ni2+-NTA-Sepharose column that had been pre-equilibrated with a loading buffer consisting of 50 mM sodium phosphate buffer (pH 7.8), 0.3 M NaCl, 10% glycerol, and 10 mM imidazole. The column was washed with a buffer containing 50 mM sodium phosphate buffer (pH 6.0), 0.3 M NaCl, 10% glycerol, and 80 mM imidazole. The target protein, RT, was eluted using an imidazole gradient ranging from 0.08 M to 0.5 M in the wash buffer. Fractions containing the enzyme were collected and combined, and then diluted 1:1 with 50 mM sodium phosphate buffer (pH 7.0) containing 10% glycerol. The diluted protein sample was loaded onto a Hi-trap heparin HP column that had been pre-equilibrated with 10 column volumes of a loading buffer consisting of 50 mM sodium phosphate buffer (pH 7.0), 10% glycerol, and 150 mM NaCl. The column was washed with the loading buffer, and the RT enzyme was eluted using Elute Buffer 2, which
(1 picture or pasted object on this page, not shown here) […]
comprised 50 mM sodium phosphate buffer (pH 7.0), 10% glycerol, and 1 M NaCl.
The eluted fractions containing the purified protein were collected, and the protein was subsequently dialyzed and stored in a buffer composed of 50 mM Tris-HCl (pH 7.0), 25 mM NaCl, 1 mM EDTA, and 50% glycerol. The catalytic activities of the purified protein samples were determined, and aliquots were stored at -80 °C for further use.
3.2 RNase H Polymerase-Independent Cleavage Assay
The HIV-1 RT-associated RNase H activity was measured as described.3 In summary, the reaction was performed in a black 96-well plate with a total volume of 100 μL. The reaction mix consisted of 50 mM Tris HCl (pH 7.8), 6 mM MgCl2, 1 mM dithiothreitol […]

[2] = recombinant HIV-1 wt RT, hybrid RNA/DNA substrate, 37 °C, 1 hour

Row | SMILES | IC50 [1, 2] [µM] | melting point [°C] | remaining activity at 100 µM [1] [%] | IC50, compound concentration required to reduce HIV-1 RT-associated RNase H activity by 50% [1, 2] [µM]
1 | COC(=O)C1=C(C)N=C2SC(=NNc3ccccc3O)C(=O)N2C1c1ccccc1 (centres unmarked) [Compound 10a, Methyl 2-(2-(2-hydroxyphenyl)hydrazineylidene)-7-methyl-3-oxo-5-phenyl-2,3-dihydro-5H-thiazolo[3,2-a]pyrimidine-6-carboxylate] | 18.2 ± 0.85 | 227 to 229 | – | –
2 | COC(=O)C1=C(C)N=C2SC(=NNc3cc(OC)c(OC)c(OC)c3)C(=O)N2C1c1ccccc1 (centres unmarked) [Compound 10c, Methyl 7-methyl-3-oxo-5-phenyl-2-(2-(3,4,5-trimethoxyphenyl)hydrazineylidene)-2,3-dihydro-5H-thiazolo[3,2-a]pyrimidine-6-carboxylate] | 24.4 ± 1.25 | 211 to 213 | – | –
3 | COC(=O)C1=C(C)N=C2S/C(=N\Nc3ccccc3C(=O)OC)C(=O)N2C1c1ccccc1 (centres unmarked) [Compound 10d, Methyl 2-((2-(methoxycarbonyl)phenyl)diazenyl)-7-methyl-3-oxo-5-phenyl-2,3-dihydro-5H-thiazolo[3,2-a]pyrimidine-6-carboxylate] | 8.27 ± 0.39 | 184 to 186 | – | –
4 | COC(=O)C1=C(C)N=C2SC(=NNc3ccc(OC)cc3S(=O)(=O)O)C(=O)N2C1c1ccccc1 (centres unmarked) [Compound 10e, 5-Methoxy-2-(2-(6-(methoxycarbonyl)-7-methyl-3-oxo-5-phenyl-5H-thiazolo[3,2-a]pyrimidin-2(3H)-ylidene)hydrazineyl)benzenesulfonic acid] | 58.4 ± 1.71 | 247 to 249 | – | –
5 | COC(=O)C1=C(C)N=C2S/C(=N\Nc3ccc4ccccc4c3S(=O)(=O)O)C(=O)N2C1c1ccccc1 (centres unmarked) [Compound 10f] | 7.04 ± 0.57 | 289 to 293 | – | –
6 | COC(=O)C1=C(C)N=C2SC(=NNc3ccccc3C(C)=O)C(=O)N2C1c1ccccc1 (centres unmarked) [Compound 10g, Methyl 2-(2-(2-acetylphenyl)hydrazineylidene)-7-methyl-3-oxo-5-phenyl-2,3-dihydro-5H-thiazolo[3,2-a]pyrimidine-6-carboxylate] | 9.01 ± 2.17 | 199 to 202 | – | –
7 | COC(=O)C1=C(C)N=C2SC(=NNc3ccc(OC)c(OC)c3)C(=O)N2C1c1ccccc1 (centres unmarked) [Compound 10h, Methyl 2-(2-(3,4-dimethoxyphenyl)hydrazineylidene)-7-methyl-3-oxo-5-phenyl-2,3-dihydro-5H-thiazolo[3,2-a]pyrimidine-6-carboxylate] | 14.4 ± 1.23 | 204 to 206 | – | –
8 | COC(=O)C1=C(C)N=C2SC(=NNc3ccccc3OC)C(=O)N2C1c1ccccc1 (centres unmarked) [Compound 10i, Methyl 2-(2-(2-methoxyphenyl)hydrazineylidene)-7-methyl-3-oxo-5-phenyl-2,3-dihydro-5H-thiazolo[3,2-a]pyrimidine-6-carboxylate] | 8.32 ± 0.06 | 189 to 192 | – | –
9 | COC(=O)C1=C(C)N=C2SC(=NNc3ccccc3)C(=O)N2C1c1ccccc1 (centres unmarked) [Compound 10j, Methyl 7-methyl-3-oxo-5-phenyl-2-(2-phenylhydrazineylidene)-2,3-dihydro-5H-thiazolo[3,2-a]pyrimidine-6-carboxylate] | 21.45 ± 0.1 | 124 to 127 | – | –
10 | COC(=O)C1=C(C)N=C2S/C(=N\Nc3ccccc3S(=O)(=O)O)C(=O)N2C1c1ccccc1 (centres unmarked) [Compound 10k, (2-(6-(Methoxycarbonyl)-7-methyl-3-oxo-5-phenyl-5H-thiazolo[3,2-a]pyrimidin-2(3H)-ylidene)hydrazineyl)benzenesulfonic acid] | > 100 | 262 to 266 | 85 | –
11 | COC(=O)C1=C(C)N=C2SC(=NNc3cccc([N+](=O)[O-])c3)C(=O)N2C1c1ccccc1 (centres unmarked) [Compound 10l, Methyl 7-methyl-2-(2-(3-nitrophenyl)hydrazineylidene)-3-oxo-5-phenyl-2,3-dihydro-5H-thiazolo[3,2-a]pyrimidine-6-carboxylate] | 6.41 ± 0.24 | 250 to 252 | – | –
12 | COC(=O)C1=C(C)N=C2SC(=NNc3cccc(C(C)=O)c3)C(=O)N2C1c1ccccc1 (centres unmarked) [Compound 10m, Methyl 2-(2-(3-acetylphenyl)hydrazineylidene)-7-methyl-3-oxo-5-phenyl-2,3-dihydro-5H-thiazolo[3,2-a]pyrimidine-6-carboxylate] | 18.4 ± 0.79 | 213 to 216 | – | –
13 | COC(=O)C1=C(C)N=C2SC(=NNc3cccc(C(=O)OC)c3)C(=O)N2C1c1ccccc1 (centres unmarked) [Compound 10n, Methyl 2-(2-(3-(methoxycarbonyl)phenyl)hydrazineylidene)-7-methyl-3-oxo-5-phenyl-2,3-dihydro-5H-thiazolo[3,2-a]pyrimidine-6-carboxylate] | 7.03 ± 0.17 | 214 to 216 | – | –
14 | COC(=O)C1=C(C)N=C2SC(=NNc3ccccc3OC)C(=O)N2C1c1ccc(OC)c(OC)c1OC (centres unmarked) [Compound 11a, Methyl 2-(2-(2-methoxyphenyl)hydrazineylidene)-7-methyl-3-oxo-5-(2,3,4-trimethoxyphenyl)-2,3-dihydro-5H-thiazolo[3,2-a]pyrimidine-6-carboxylate] | 11.8 ± 0.91 | 178 to 180 | – | –
15 | COC(=O)C1=C(C)N=C2SC(=NNc3ccccc3)C(=O)N2C1c1ccc(OC)c(OC)c1OC (centres unmarked) [Compound 11b, Methyl 7-methyl-3-oxo-2-(2-phenylhydrazineylidene)-5-(2,3,4-trimethoxyphenyl)-2,3-dihydro-5H-thiazolo [3,2-a]pyrimidine-6-carboxylate] | 48.9 ± 4.73 | 189 to 192 | – | –
16 | COC(=O)C1=C(C)N=C2SC(=NNc3cccc([N+](=O)[O-])c3)C(=O)N2C1c1ccc(OC)c(OC)c1OC (centres unmarked) [Compound 11d, Methyl 7-methyl-2-(2-(3-nitrophenyl)hydrazineylidene)-3-oxo-5-(2,3,4-trimethoxyphenyl)-2,3-dihydro-5H-thiazolo[3,2-a]pyrimidine-6-carboxylate] | 10.1 ± 1.64 | 236 to 238 | – | –
17 | COC(=O)C1=C(C)N=C2SC(=NNc3ccccc3S(=O)(=O)O)C(=O)N2C1c1ccc(OC)c(OC)c1OC (centres unmarked) [Compound 11e, 2-(2-(6-(Methoxycarbonyl)-7-methyl-3-oxo-5-(2,3,4-trimethoxyphenyl)-5H-thiazolo[3,2-a]pyrimidin-2(3H)-ylidene)hydrazineyl)benzenesulfonic acid] | > 100 | 238 to 240 | 97 | –
18 | COC(=O)C1=C(C)N=C2SC(=NNc3ccc(OC)cc3S(=O)(=O)O)C(=O)N2C1c1ccc(OC)c(OC)c1OC (centres unmarked) [Compound 11f, 5-Methoxy-2-(2-(6-(methoxycarbonyl)-7-methyl-3-oxo-5-(2,3,4-trimethoxyphenyl)-5H-thiazolo[3,2-a]pyrimidin-2(3H)-ylidene)hydrazineyl)benzenesulfonic acid] | > 100 | 244 to 246 | 61 | –
19 | COC(=O)C1=C(C)N=C2S/C(=N\Nc3ccc4ccccc4c3S(=O)(=O)O)C(=O)N2C1c1ccc(OC)c(OC)c1OC (centres unmarked) [Compound 11g, (2-(6-(Methoxycarbonyl)-7-methyl-3-oxo-5-(2,3,4-trimethoxyphenyl)-5H-thiazolo[3,2-a]pyrimidin-2(3H)-ylidene)hydrazineyl)naphthalene-1-sulfonic acid] | – | 241 to 244 | – | –
20 | CCOC(=O)C(=O)CC(=O)/C=C/c1cccn1Cc1ccc(F)cc1 [RDS1643, reference compound] | – | – | – | 8.6 ± 1.30
